# Assay results reported in the supplement of paper PMC6045584.
# ± gives the standard deviation of the averaged measurements.
# Assays:
# [1] = compound: C=CC(=O)Nc1cc2c(Nc3ccc(F)c(Cl)c3)ncnc2cc1OCCCN1CCOCC1 [CANERTINIB]; assay: surviving fraction relative to DMSO-only wells; higher = less growth inhibition; details: exposure time: 5 days
# In short: (§1)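 After seeding at 250–500 cells per well in 384-well plates and a 24-hour wait, log-phase tumour cell lines were exposed without interruption for five days to inhibitors at 0.5, 1, 5, 10, 50, 100, 500 and 1000 nM. CellTiter-Glo luminescence was recorded after 10 minutes at room temperature. Viability is reported as surviving fraction, the luminescence normalised to the median of DMSO-only wells.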
# [2] = compound: Cn1cc(C2=Nc3cc(NC(=O)C(N)C4CCCCC4)cc4c3C2=CNNC4=O)cn1; assay: as above; details: exposure time: 5 days
# In short: as §1
Test System,surviving fraction ([1]; 0.5 nM),surviving fraction ([1]; 1 nM),surviving fraction ([1]; 5 nM),surviving fraction ([1]; 10 nM),surviving fraction ([1]; 50 nM),surviving fraction ([1]; 100 nM),surviving fraction ([1]; 500 nM),surviving fraction ([1]; 1000 nM),surviving fraction ([2]; 0.5 nM),surviving fraction ([2]; 1 nM),surviving fraction ([2]; 5 nM),surviving fraction ([2]; 10 nM),surviving fraction ([2]; 50 nM),surviving fraction ([2]; 100 nM),surviving fraction ([2]; 500 nM),surviving fraction ([2]; 1000 nM)
MG63 BONE,0.947 ± 0.015,0.919 ± 0.016,0.9893 ± 0.007,0.971 ± 0.013,1.02 ± 0.014,1.02 ± 0.011,0.993 ± 0.025,1 ± 0.022,0.99 ± 0.033,1.02 ± 0.021,1.03 ± 0.024,1.05 ± 0.047,1.02 ± 0.058,0.822 ± 0.0046,0.0643 ± 0.0084,0.101 ± 0.011
JIMT1 BREAST,0.896 ± 0.02,0.904 ± 0.029,0.94 ± 0.029,0.911 ± 0.021,0.968 ± 0.021,0.897 ± 0.042,0.633 ± 0.041,0.541 ± 0.042,0.921 ± 0.046,0.941 ± 0.051,0.911 ± 0.023,0.9362 ± 0.0086,0.874 ± 0.037,0.927 ± 0.042,0.803 ± 0.011,0.424 ± 0.025
HT1080 SOFT TISSUE,1.02 ± 0.015,1.05 ± 0.03,0.9963 ± 0.0099,0.997 ± 0.0076,1.019 ± 0.0087,0.987 ± 0.031,0.982 ± 0.058,0.97 ± 0.038,0.977 ± 0.013,1.01 ± 0.03,0.987 ± 0.028,1.03 ± 0.025,0.879 ± 0.041,0.812 ± 0.013,0.153 ± 0.0023,0.122 ± 0.016
MDAMB231 BREAST,0.93 ± 0.033,0.937 ± 0.027,0.956 ± 0.022,0.946 ± 0.031,0.986 ± 0.021,0.989 ± 0.029,0.874 ± 0.02,0.746 ± 0.039,0.95 ± 0.016,0.949 ± 0.031,0.964 ± 0.015,0.953 ± 0.032,0.908 ± 0.029,0.896 ± 0.019,0.544 ± 0.04,0.278 ± 0.01
HU09 BONE,0.807 ± 0.14,0.891 ± 0.066,0.977 ± 0.058,0.904 ± 0.079,1.02 ± 0.086,1.02 ± 0.081,0.766 ± 0.033,0.478 ± 0.027,0.977 ± 0.039,1.02 ± 0.062,1.02 ± 0.058,0.975 ± 0.015,0.6343 ± 0.0057,0.372 ± 0.033,0.073 ± 0.0061,0.0617 ± 0.011
SIHA CERVIX,0.897 ± 0.035,0.809 ± 0.04,0.978 ± 0.023,0.867 ± 0.049,0.951 ± 0.14,0.977 ± 0.055,0.871 ± 0.027,0.727 ± 0.027,1.053 ± 0.0049,0.972 ± 0.02,1.06 ± 0.086,1.06 ± 0.043,1.02 ± 0.05,1.05 ± 0.07,0.917 ± 0.059,0.524 ± 0.024
LM7 BONE,0.739 ± 0.015,0.657 ± 0.0061,0.791 ± 0.019,0.75 ± 0.012,0.88 ± 0.044,0.872 ± 0.085,0.655 ± 0.026,0.536 ± 0.027,0.979 ± 0.073,0.898 ± 0.06,1.04 ± 0.07,1.01 ± 0.11,0.826 ± 0.017,0.651 ± 0.033,0.119 ± 0.015,0.0753 ± 0.0038
HCC1954 BREAST,0.376 ± 0.025,0.336 ± 0.0092,0.382 ± 0.014,0.316 ± 0.014,0.263 ± 0.011,0.258 ± 0.015,0.136 ± 0.016,0.117 ± 0.0071,0.772 ± 0.092,0.584 ± 0.042,0.927 ± 0.019,0.889 ± 0.035,0.571 ± 0.011,0.6015 ± 0.0014,0.1713 ± 0.0011,0.0897 ± 0.0074
VP229 BREAST,0.724 ± 0.051,0.682 ± 0.085,0.638 ± 0.11,0.514 ± 0.061,0.467 ± 0.021,0.42 ± 0.033,0.201 ± 0.019,0.154 ± 0.044,1.04 ± 0.11,1.04 ± 0.035,1.02 ± 0.059,1.11 ± 0.17,1.06 ± 0.15,1.01 ± 0.064,1.13 ± 0.13,1.06 ± 0.15
